Source: ChEMBL document CHEMBL4014291, “Tripodal squaramide conjugates as highly effective transmembrane anion transporters” (Bioorg Med Chem Lett, 2017)
The source made the active and inactive calls. The calls are words filed in the database; no cut-off is given here.

Legend:
[1] = Ionophoric activity across pyranine dye encapsulated pH 7 egg yolk L-alpha-phosphatidylcholine-based large unilamellar vesicles assessed as bromide ion transport by measuring initial rate constant for induction of pH discharge at 0.125 mol% in presence of NaBr loaded external vesicles by fluorescence method (reference value: 2.08 +/- 0.19 10^-2/min)
[2] = Ionophoric activity across pyranine dye encapsulated pH 7 egg yolk L-alpha-phosphatidylcholine-based large unilamellar vesicles assessed as chloride ion transport by measuring induction of pH discharge in presence of NaCl loaded external vesicles by fluorescence method
[3] = Ionophoric activity across pyranine dye encapsulated pH 7 egg yolk L-alpha-phosphatidylcholine-based large unilamellar vesicles assessed as bromide ion transport by measuring initial rate constant for induction of pH discharge at 0.0156 mol% in presence of NaBr loaded external vesicles by fluorescence method (reference value: 2.08 +/- 0.19 10^-2/min)
[4] = Ionophoric activity across pyranine dye encapsulated pH 7 egg yolk L-alpha-phosphatidylcholine-based large unilamellar vesicles assessed as chloride ion transport by measuring initial rate constant for induction of pH discharge at 0.0313 mol% in presence of NaCl loaded external vesicles by fluorescence method (reference value: 0.81 +/- 0.22 10^-2/min)
[5] = Binding affinity to tetrabutylammonium chloride anion after 2 mins by spectrophotometric method
[6] = Ionophoric activity across pyranine dye encapsulated pH 7 egg yolk L-alpha-phosphatidylcholine-based large unilamellar vesicles assessed as nitrate ion transport by measuring initial rate constant for induction of pH discharge at 0.0625 mol% in presence of NaNO3 loaded external vesicles by fluorescence method (reference value: 2.24 +/- 0.52 10^-2/min)
[7] = Ionophoric activity across egg yolk L-alpha-phosphatidylcholine-based large unilamellar vesicles loaded with NaCl assessed as chloride transportat 1 mol% after 300 seconds in presence of NaSO4 loaded external vesicles by electrode technique
[8] = Ionophoric activity across pyranine dye encapsulated pH 7 egg yolk L-alpha-phosphatidylcholine-based large unilamellar vesicles assessed as bromide ion transport by measuring induction of pH discharge in presence of NaBr loaded external vesicles by fluorescence method
[9] = Ionophoric activity across pyranine dye encapsulated pH 7 egg yolk L-alpha-phosphatidylcholine-based large unilamellar vesicles assessed as bromide ion transport by measuring initial rate constant for induction of pH discharge at 0.0625 mol% in presence of NaBr loaded external vesicles by fluorescence method (reference value: 2.08 +/- 0.19 10^-2/min)
[10] = Ionophoric activity across pyranine dye encapsulated pH 7 egg yolk L-alpha-phosphatidylcholine-based large unilamellar vesicles assessed as iodide ion transport by measuring initial rate constant for induction of pH discharge at 0.0078 mol% in presence of NaI loaded external vesicles by fluorescence method (reference value: 3.52 +/- 0.22 10^-2/min)
[11] = Ionophoric activity across pyranine dye encapsulated pH 7 egg yolk L-alpha-phosphatidylcholine-based large unilamellar vesicles assessed as sulfate ion transport by measuring induction of pH discharge up to 3 mol% in presence of Na2SO4 loaded external vesicles by fluorescence method
[12] = Ionophoric activity across pyranine dye encapsulated pH 7 egg yolk L-alpha-phosphatidylcholine-based large unilamellar vesicles assessed as iodide ion transport by measuring initial rate constant for induction of pH discharge at 0.0625 mol% in presence of NaI loaded external vesicles by fluorescence method (reference value: 3.52 +/- 0.22 10^-2/min)
[13] = Ionophoric activity across pyranine dye encapsulated pH 7 egg yolk L-alpha-phosphatidylcholine-based large unilamellar vesicles assessed as iodide ion transport by measuring initial rate constant for induction of pH discharge at 0.0039 mol% in presence of NaI loaded external vesicles by fluorescence method (reference value: 3.52 +/- 0.22 10^-2/min)
[14] = Ionophoric activity across pyranine dye encapsulated pH 7 egg yolk L-alpha-phosphatidylcholine-based large unilamellar vesicles assessed as bromide ion transport by measuring initial rate constant for induction of pH discharge at 0.0313 mol% in presence of NaBr loaded external vesicles by fluorescence method (reference value: 2.08 +/- 0.19 10^-2/min)
[15] = Binding affinity to tetramethylammonium sulfate anion after 2 mins by spectrophotometric method
[16] = Ionophoric activity across pyranine dye encapsulated pH 7 egg yolk L-alpha-phosphatidylcholine-based large unilamellar vesicles assessed as chloride ion transport by measuring initial rate constant for induction of pH discharge at 0.125 mol% in presence of NaCl loaded external vesicles by fluorescence method (reference value: 0.81 +/- 0.22 10^-2/min)
[17] = Ionophoric activity across pyranine dye encapsulated pH 7 egg yolk L-alpha-phosphatidylcholine-based large unilamellar vesicles assessed as iodide ion transport by measuring initial rate constant for induction of pH discharge at 0.0313 mol% in presence of NaI loaded external vesicles by fluorescence method (reference value: 3.52 +/- 0.22 10^-2/min)
[18] = Ionophoric activity across pyranine dye encapsulated pH 7 egg yolk L-alpha-phosphatidylcholine-based large unilamellar vesicles assessed as chloride ion transport by measuring initial rate constant for induction of pH discharge at 0.25 mol% in presence of NaCl loaded external vesicles by fluorescence method (reference value: 0.81 +/- 0.22 10^-2/min)
[19] = Ionophoric activity across pyranine dye encapsulated pH 7 egg yolk L-alpha-phosphatidylcholine-based large unilamellar vesicles assessed as nitrate ion transport by measuring initial rate constant for induction of pH discharge at 0.01563 mol% in presence of NaNO3 loaded external vesicles by fluorescence method (reference value: 2.24 +/- 0.52 10^-2/min)
[20] = Ionophoric activity across pyranine dye encapsulated pH 7 egg yolk L-alpha-phosphatidylcholine-based large unilamellar vesicles assessed as iodide ion transport by measuring initial rate constant for induction of pH discharge at 0.0156 mol% in presence of NaI loaded external vesicles by fluorescence method (reference value: 3.52 +/- 0.22 10^-2/min)
[21] = Ionophoric activity across egg yolk L-alpha-phosphatidylcholine-based large unilamellar vesicles loaded with NaCl assessed as release of chloride ion after 300 seconds in presence of NaNO3 loaded external vesicles by electrode technique
[22] = Ionophoric activity across pyranine dye encapsulated pH 7 egg yolk L-alpha-phosphatidylcholine-based large unilamellar vesicles assessed as nitrate ion transport by measuring initial rate constant for induction of pH discharge at 0.125 mol% in presence of NaNO3 loaded external vesicles by fluorescence method (reference value: 2.24 +/- 0.52 10^-2/min)
[23] = Ionophoric activity across pyranine dye encapsulated pH 7 egg yolk L-alpha-phosphatidylcholine-based large unilamellar vesicles assessed as iodide ion transport by measuring induction of pH discharge in presence of NaI loaded external vesicles by fluorescence method
[24] = Ionophoric activity across pyranine dye encapsulated pH 7 egg yolk L-alpha-phosphatidylcholine-based large unilamellar vesicles assessed as nitrate ion transport by measuring induction of pH discharge in presence of NaNO3 loaded external vesicles by fluorescence method
[25] = Binding affinity to tetrabutylammonium chloride anion by 1H NMR spectrophotometric method
[26] = Ionophoric activity across egg yolk L-alpha-phosphatidylcholine-based large unilamellar vesicles loaded with RbCl assessed as chloride ion efflux at 1 mol% after 300 seconds in presence of NaNO3 loaded external vesicles by electrode technique

| SMILES | K [1] [×10⁻² /min] | EC50 [2] [mol%] | K [3] [×10⁻² /min] | K [4] [×10⁻² /min] | Ka [5] | logKa [5] | K [6] [×10⁻² /min] | Activity [7] | EC50 [8] [mol%] | K [9] [×10⁻² /min] | K [10] [×10⁻² /min] | Activity [11] | K [12] [×10⁻² /min] | K [13] [×10⁻² /min] | K [14] [×10⁻² /min] | Ka [15] [×10⁵ /M] | logKa [15] | K [16] [×10⁻² /min] | K [17] [×10⁻² /min] | K [18] [×10⁻² /min] | other results |
| --- | --- | --- | --- | --- | --- | --- | --- | --- | --- | --- | --- | --- | --- | --- | --- | --- | --- | --- | --- | --- | --- |
| O=c1c(NCCN(CCNc2c(Nc3cc(C(F)(F)F)cc(C(F)(F)F)c3)c(=O)c2=O)CCNc2c(Nc3cc(C(F)(F)F)cc(C(F)(F)F)c3)c(=O)c2=O)c(Nc2cc(C(F)(F)F)cc(C(F)(F)F)c2)c1=O | 6.24 | 0.75 | 2.22 | 1.32 | 2.94 ×10³ /M | 3.47 | 4.52 | inactive | 0.49 | 3.85 | 4.41 | inactive | 10.6 | 3.7 | 2.89 | > 1 | > 5 | 2.57 | 7.67 | 3.87 | K [19]: 2.77 ×10⁻² /min; K [20]: 5.92 ×10⁻² /min; Activity [21]: Dose-dependent effect; K [22]: 6.9 ×10⁻² /min; EC50 [23]: 0.05 mol%; EC50 [24]: 0.23 mol% |
| O=c1c(NCCN(CCNc2c(Nc3ccc(C(F)(F)F)cc3)c(=O)c2=O)CCNc2c(Nc3ccc(C(F)(F)F)cc3)c(=O)c2=O)c(Nc2ccc(C(F)(F)F)cc2)c1=O | 11 | 0.14 | 3.37 | 1.68 | 7.03 ×10² /M | 2.84 | 7.45 | inactive | 0.13 | 7.27 | 5.2 | inactive | 14.5 | 3.94 | 4.31 | 4.79 | 5.64 | 4.04 | 9.99 | 5.41 | logKa [25]: 2.65; K [19]: 3.17 ×10⁻² /min; K [20]: 6.27 ×10⁻² /min; Activity [21]: Dose-dependent effect; Activity [26]: inactive; K [22]: 11.4 ×10⁻² /min; EC50 [23]: 0.06 mol%; EC50 [24]: 0.11 mol% |
